Key:
[1] = Spectroscopic evaluation of the flower water for chlorine dioxide; assay type: physicochemical; conditions: third day of the tests; uncovered beakers, tap water
From the text: As may be seen from the results set forth in Table 1, the roses in the beaker containing no chlorine dioxide had the shortest lifetime. […] Roses with less or more chlorine dioxide had intermediate lifetimes. […] This was not surprising since the beakers were uncovered and chlorine dioxide could readily escape or decompose.

fresh red roses = test: Cut flower life test: 5 fresh red roses per beaker of treated tap water, monitored daily for bloom death; assay type: in vivo, rose; conditions: for Average Flower Life: 5 per beaker
Description: In the following examples, test were conducted with fresh red roses obtained from a single source. The stems were cut (under water) and, for each experimental test, 5 roses were placed in a beaker. The same person monitored the flowers every day (the criterion for bloom death was that the monitor would have discarded the roses if the roses were in the monitor's home). Thereafter, the average flower life in days was calculated for each experimental condition.
Five beakers of 800 ml tap water containing 0, 2, 5, 10 and 15 ppm chlorine dioxide were used for these tests.
Example 1 was repeated using tap water alone, tap water containing 5 ppm chlorine dioxide, tap water containing “Aquaplus®” and tap water containing 5 ppm chlorine dioxide and “Aquaplus®”. “Aquaplus®” is described as a fresh flower nutrient and water clarifier and was obtained from Syndicate Sales, Kokomo, Ind.

SMILES: [O][Cl+][O-] [Chlorine Dioxide, chlorine dioxide]
- Chlorine dioxide present in the flower water [1]: no chlorine dioxide was present
- Average Flower Life (fresh red roses; 2 ppm chlorine dioxide in 800 ml tap water): 5.6 days
- Change of lifetime of the roses compared to no chlorine dioxide / plain water control (fresh red roses; 5 ppm chlorine dioxide): approximately doubled
- Average Flower Life (fresh red roses; 5 ppm chlorine dioxide in 800 ml tap water): 7.8 days
- Average Flower Life (fresh red roses; 10 ppm chlorine dioxide in 800 ml tap water): 5.8 days
- Average Flower Life (fresh red roses; 15 ppm chlorine dioxide in 800 ml tap water): 5.8 days
- Flower Lifetime (fresh red roses; Example 2, tap water containing 5 ppm ClO2): 7.8 days
